For one data set, the system named is nonhuman primates. Kind of data set: Proof of concept study in nonhuman primates, uricase specific ADAs. The format is in vivo. Particulars: pegsiticase alone, five monthly doses; by the end of the study. The protocol:
A preclinical study to evaluate the ability of SVP Rapamycin to mitigate the formation of uricase specific ADAs in nonhuman primates was also conducted. As depicted in FIG. 3, during the study: • pegsiticase was administered alone, referred to as the Empty Nanoparticle Group, or • was co-administered with one of two dose levels of SVP Rapamycin, referred to as the SVP Rapamycin 0.1× and SVP Rapamycin 1× Groups, respectively. The SVP Rapamycin 0.1× Group received a dose level of SVP Rapamycin of 0.3 mg/kg and the SVP Rapamycin 1× Group received a dose level of SVP Rapamycin of 3 mg/kg.
The Empty Nanoparticle Group received three monthly doses of pegsiticase and each of the SVP Rapamycin 0.1× Group and SVP Rapamycin 1× Group received three monthly doses of pegsiticase co-administered with SVP Rapamycin. All groups then received two monthly doses of pegsiticase alone. The SVP Rapamycin 0.1× Group received one tenth of the dose administered in the SVP Rapamycin 1× Group.

The test system of a further data set is uricase activity. Particulars: human, in vivo.
The subject of data set [1] is subjects with elevated serum uric acid levels greater than 6 mg/dl. Kind of data set: Phase 1a clinical trial, single intravenous infusion of pegsiticase alone. The format is in vivo. The procedure: The Phase 1a clinical trial for SEL 212 was an ascending dose trial of pegsiticase alone in 22 subjects with elevated serum uric acid levels greater than 6 mg/dl who were separated into five cohorts. Each cohort received a single intravenous infusion of pegsiticase at the following dose levels of 0.1 mg/kg for Cohort #1, 0.2 mg/kg for Cohort #2, 0.4 mg/kg for Cohort #3, 0.8 mg/kg for Cohort #4 and 1.2 mg/kg for Cohort #5. Dosing began with the lowest dose and only after an entire cohort was safely dosed was the next cohort started.
FIG. 4 depicts average serum uric acid levels of the Phase 1a clinical trial's five cohorts tested at different measurement intervals (Day 7, 14, 21 and 30) during the course of the 30 day period following the single intravenous infusion of pegsiticase at the outset of the trial.
The serum uric acid levels were measured at baseline and days seven, 14, 21 and 30 and uricase specific ADA levels at baseline and days seven, 14 and 30 following a single intravenous injection of pegsiticase. Uricase specific ADA levels at day 21 in the Phase 1a clinical trial were not measured. Based on the results from the Phase 1a clinical trial, it was observed that pegsiticase at a tolerated dose is capable of achieving and maintaining a reduction of serum uric acid below the target of 6 mg/dl for a 30 day period in the absence of inhibitory uricase specific ADAs.

Another data set relates to anti-uricase IgG. Kind of data set: Anti-uricase antibody titer by sandwich ELISA, monthly dosing in symptomatic gout patients. The format is in vivo, human. The procedure: Safety, tolerability, sUA, ADAs, and uricase activity were monitored.
In this example, “responder” indicates an individual with serum uric acid values […] and serum uric acid ≤1 mg/dL on day 21 (stopping rule). In this example, a “non-responder” is a subject having serum uric acid levels ≥6 mg/dL at any time during a 28 day dosing cycle. The “maximum titer” is the maximum titer observed during a 28 day dosing cycle.
Anti-uricase antibodies were detected using a sandwich ELISA. […] Uricase activity was measured fluorometrically.
In general terms: In an ELISA, binding on a coated surface is turned into a signal by an enzyme label.

In data set [2] the test system is patients with serum uric acid levels greater than 6 mg/dl. Kind of data set: Phase 1b clinical trial, SVP Rapamycin alone, pegsiticase alone or SEL 212.
Procedure: The Phase 1b clinical trial enrolled 63 patients with serum uric acid levels greater than 6 mg/dl separated into 11 cohorts. A single intravenous infusion of SVP Rapamycin alone at the following ascending dose levels was administered to four cohorts in ascending order. Each cohort consisted of seven patients and were designated as follows: Cohort #1 (0.03 mg/kg), Cohort #3 (0.1 mg/kg), Cohort #5 (0.3 mg/kg) and Cohort #7 (0.5 mg/kg) collectively the SVP Rapamycin Cohorts. After a cohort of the SVP-Rapamycin alone had successfully and safely been dosed the corresponding dose level of SVP Rapamycin was combined with a fixed dose of pegsiticase (0.4 mg/kg). The combination was co-administered sequentially as a single intravenous infusion, with the SVP Rapamycin infusion preceding the pegsiticase infusion. The cohort designation is as follows for the six cohorts (5 patients per cohort), which were Cohort #2 (SVP Rapamycin 0.03 mg/kg+0.4 mg/kg pegsiticase), Cohort #4 (SVP Rapamycin 0.1 mg/kg+0.4 mg/kg pegsiticase), Cohort #6 (SVP Rapamycin 0.3 mg/kg+0.4 mg/kg pegsiticase), Cohort #10 (0.4 mg/kg pegsiticase+0.03 mg/kg SVP Rapamycin separated by 48 hours), Cohort #12 (SVP Rapamycin 0.15 mg/kg+0.4 mg/kg pegsiticase) and Cohort #14 (SVP Rapamycin 0.1 mg/kg+0.4 mg/kg pegsiticase) collectively the SEL 212 Cohorts. In Cohort #9 a fixed amount of pegsiticase alone at a dose level of 0.4 mg/kg was administered to five patients, which is referred to as the Pegsiticase Cohort. […] The subjects were monitored during a 30 day period post infusion with visits occurring on day 7, 14,21 and the end of trial visit on day 30. Blood and serum of each patient was evaluated for serum uric acid, ADAs (specifically anti-PEG, anti-uricase and anti-pegsiticase) and safety parameters. The primary objective of the Phase 1b clinical trial was to evaluate the safety and tolerability of SVP Rapamycin alone and in combination with a fixed dose of pegsiticase. A secondary clinical objective was to evaluate the ability of SVP Rapamycin co-administered with pegsiticase to reduce serum uric acid levels and mitigate the formation of uricase specific ADAs when compared to administration of pegsiticase alone.
The test system of data set [3] is mice genetically deficient in endogenous uricase. The data set can be described thus: Proof of concept study in uricase deficient mice. The format is in vivo. The protocol: A pharmacology study in mice that were genetically deficient in endogenous uricase was conducted. The study evaluated the efficacy of a dose regimen consisting of three immunizations with SEL 212 followed by doses of pegsiticase alone in preventing the formation of ADAs to pegsiticase. The treatment period consisted of the first 14 days of the study. In the study, mice were separated into three treatment groups. During the treatment period: • the first group, referred to as the Untreated Group, received no treatment; • the second group, referred to as the Pegsiticase Group, was treated with pegsiticase alone; and • the third group, referred to as the SVP Rapamycin+Pegsiticase Group, was treated with SVP Rapamycin co administered with pegsiticase.
The Pegsiticase Group and SVP Rapamycin+Pegsiticase Group were treated on days zero, seven and 14 of the treatment period. Each group was then treated with pegsiticase alone on days 35 and 42 of the study, or the challenge period. Uricase specific ADA levels were recorded to determine the formation of ADAs to pegsiticase. Uric acid levels were measured to determine effectiveness of SVP Rapamycin co administered with pegsiticase in lowering uric acid levels below 6 mg/dl, which is the treatment target for gout patients.

Another data set has as its system patients with gout. The following applies: cited from earlier work; for Patients with gout flares requiring treatment in a month: colchicine prophylaxis; for Flares per patient month (flare frequency): worked out from literature data.
Data set [4] concerns patients with hyperuricemia and gout. Particulars: cited from earlier work; for Subjects that required treatment for at least one gout flare: first 8 weeks, with gout flare prophylaxis; for Flares per patient month (flare frequency): worked out from literature data.
Data set [5] deals with patients with refractory gout. Particulars: cited from earlier work; for Flares per patient month (flare frequency): worked out from literature data; for Mean uric acid levels at four weeks: monthly dosing.

Several values for one entry are separate records, joined by “and”; a condition that tells them apart may be missing. Equal entries are not always repeated. Where two headings read alike, the source gives them in different places.

Procedure for uricase activity: Methods: Patients with symptomatic gout (≥1 tophus, gout flare within 6 months or gouty arthropathy) and elevated SUA ≥6 mg/dL were treated with fixed doses of the pegylated uricase (0.2 mg/kg) in combination with SEL-110 (0.1 and 0.15 mg/kg), or the pegylated uricase (0.2 or 0.4 mg/kg) alone as a control. Patients were infused in 28-day cycles up to 5 times. Safety, tolerability, sUA, ADAs, and uricase activity were monitored.
Uricase activity was measured fluorometrically. As uricase converts uric acid into allantoin and H2O2, horseradish peroxidase was added and reached with H2O2 and a fluorescent probe to yield a quantifiable signal.

For “Recombinant Pegylated Candida Urate Oxidase [pegsiticase]”, the “Uricase specific ADAs” value in the data set with nonhuman primates is listed as “high levels of uricase specific ADAs”; in [1] (single IV infusion, varying levels) it was “induced uricase specific ADAs in all subjects”. The “Average uricase activity AUC” value in the data set with uricase activity is given as 3437 mU/dL*wk. The “Flare in 1st month” value in data set [1] (individual subject with history of gout, SEL-037 0.8 mg/kg) is “no”; in [1] (individual subjects with history of gout, SEL-037 0.1 mg/kg, 0.1 mg/kg) it was “no and yes (2×) and yes (positive for”; in data set [1] (individual subjects with history of gout, SEL-037 0.2 mg/kg, 0.2 mg/kg) it was “no and yes (mild gout, right”. In data set [1] (pegsiticase alone, 4 out of 7 patients), the “Subjects with a history of gout with signs of gout flare in the first month” value was determined as 57%. In addition, the “Onset of reduction of average serum uric acid levels” value in data set [1] (single IV infusion, 0.1 to 1.2 mg/kg) is “within hours”. The “Serious adverse events and tolerability” value in data set [1] (single IV infusion, five dose levels 0.1 to 1.2 mg/kg) is “no serious adverse events and was well tolerated”. In data set [1] (tolerated dose, 30 day period, in the absence of inhibitory uricase specific ADAs), the “Serum uric acid maintained” value was less than 6 mg/dL. The “Treatment periods with maximum antibody titers <1080” value in the data set on anti-uricase IgG (28-day cycles, SEL-212 111/133, pegylated uricase alone 1/7 treatment periods) was determined as 14.3%. Moreover, the Anti-uricase antibodies result in the data set on anti-uricase IgG (pegylated uricase alone, discontinued from the study within the first two months) is recorded as “developed high titer antibodies”. In addition, the “Subjects that returned to baseline serum uric acid levels by day 30” value in data set [2] (Cohort #9: pegsiticase alone 0.4 mg/kg) is “four of the five”. The “Enzyme activity past day 14” value in data set [2] (pegsiticase alone 0.4 mg/kg, Cohort #3 Phase 1a and Cohort #9 Phase 1b) is “loose the enzyme activity”. The “Uricase specific ADA formation” value in data set [2] (pegsiticase alone 0.4 mg/kg, Cohort #3 Phase 1a and Cohort #9 Phase 1b, resulting in return to baseline serum uric acid) is “uricase specific ADA formation at day 14”. In data set [2] (pegsiticase alone 0.4 mg/kg, Cohort #3 Phase 1a and Cohort #9 Phase 1b, up to day 14), the “Serum uric acid, initial control” value is “below 6 mg/dL”. For the same compound, the Uric acid levels result in data set [3] (after the first dose in the treatment period) is “below 6 mg/dl”; in data set [3] (subsequent doses in the treatment period and challenge period), greater than 6 mg/dL. Besides, the “Uricase specific ADA levels (antibody formation)” value in data set [3] (uricase deficient mice, treatment period (days 0, 7, 14) and challenge period (days 35, 42)) is on record as “developed uricase specific ADAs”.

For `O=C(O)CSc1nnc(Br)n1-c1ccc(C2CC2)c2ccccc12` [Lesinurad, lesinurad], the “Patients with gout flares requiring treatment in a month” value in the data set with patients with gout (200 mg daily, out of 46 patients) is given as 10; in the data set on patients with gout (400 mg daily, out of 42 patients) it was 13; in the data set with patients with gout (600 mg daily, out of 48 patients), 15. Moreover, the “Time of efficacy (area under curve of mean AIN levels over time)” value is recorded as 158.5 with patients with gout (200 mg/day), 165.8 in the data set on patients with gout (400 mg/day) and 167.5 with patients with gout (600 mg/day). Further, the “Flares per patient month (flare frequency)” value (“Flares per patient month” for short) with patients with gout (200 mg/day) is on record as 0.22 flares per patient month; with patients with gout (400 mg/day), 0.31 flares per patient month; with patients with gout (600 mg/day), 0.31 flares per patient month.

`Cc1nc(-c2ccc(OCC(C)C)c(C#N)c2)sc1C(=O)O` [Febuxostat, febuxostat]: the “Subjects that required treatment for at least one gout flare” value is on record as 55 in data set [4] (80 mg/day, out of 255 subjects) and 90 in data set [4] (120 mg/day, out of 250 subjects). In addition, the “Flares per patient month” value in data set [4] (80 mg/day) is listed as 0.22 flares per patient month; in data set [4] (80 mg/day, listed as febuxostat) it was “at least 0.22 flares per patient month”; in data set [4] (120 mg/day), 0.36 flares per patient month; in data set [4] (120 mg/day, listed as febuxostat), no less than 0.36 flares per patient month.

For the compound pegloticase [KRYSTEXXA®], the “Treated subjects that developed ADAs” value in [5] (all KRYSTEXXA-treated subjects) is 89%. The “Flares per patient over the first 3 months” value in [5] (biweekly pegloticase, 85 patients) is 2.3 flares per patient; in data set [5] (monthly pegloticase, 84 patients) it was 2.7 flares per patient. Besides, the “Time of efficacy (area under curve of mean AIN levels over time)” value is “Nonresponders-84.35” in data set [5] (biweekly, nonresponders); “Responders-26.6” in data set [5] (biweekly, responders); “Nonresponders-99.75” in data set [5] (monthly, nonresponders); “Responders-53.55” in data set [5] (monthly, responders). Besides, the “Flares per patient month” value is on record as 0.77 flares per patient month in data set [5] (biweekly); 0.90 flares per patient month in data set [5] (monthly, listed as Pegloticase); 0.9 flares per patient month in [5] (monthly, listed as pegloticase). Besides, the “Subjects classified as non-responders” value in data set [5] (monthly dosing cohorts) is 65%. The “Subjects classified as responders (uric acid below 6 mg/dl for 80% of the time at months three and six)” value in [5] (monthly dosing cohorts) is 35%. Further, the “Mean uric acid levels at four weeks” value is on record as “above 6 mg/dl” in data set [5] (non-responders) and “above 4 mg/dl” in [5] (responders).

The record behind these values is patent publication US12553041B2, “Formulations and doses of pegylated uricase” (Cartesian Therapeutics Inc., priority 2019, dated 2026).
